Measurements from patent US20050208496A1, “Methods of testing for bronchial asthma or chronic obstructive pulmonary disease” (Genox Research, Inc., priority 2002, published 2005).

Tested on: respiratory epithelial cells

## IL-13: human IL-13 (Peprotech, Inc.) added to the medium at 50 ng/mL to stimulate respiratory epithelial cells
Lot 1, Day 7, AI
  AI948584 48086_at expression change: −3.9
  AI971023 48539_at expression change: −2.1
  AI984780 (52384_s_at) expression change: −2.5
  AL040936 (45684_at) expression change: −2.3
  AQP5 32909_at expression change: −3.4
  ARHGEF4 36524_at expression change: −4.1
  ARHV (82231_at) expression change: −2.7
  AW022213 (79520_at) expression change: −2.6
  AW025596 52634_at expression change: −2.5
  AW025596 52637_g_at expression change: −5.7
  B4GALT5 56373_at expression change: −2.2
  BARX2 35425_at expression change: −2.4
  BPGM (51261_at) expression change: −3.7
  CBLB 514_at expression change: −4.2
  CBLB 35632_at expression change: −2
  COL12A1 (44730_at) expression change: −3.5
  CRABP-II 1057_at expression change: −5.4
  CRABP-II 41783_at expression change: −8.8
  Clorf28 50075_at expression change: −3.5
  DHCR24 (74557_s_at) expression change: −2
  DKFZp434K1210 44682_at expression change: −2.1
  DSC3 (79615_at) expression change: −2.4
  DSC3a, b 47119_at expression change: −2.8
  DSC3a, b 79615_at expression change: −2.4
  EVPK 39569_at expression change: −2
  FKBP5 (46271_at) expression change: −2.3
  FLJ10298 (62490_f_at) expression change: −4.5
  FLJ10718 52072_at expression change: −3.8
  FLJ12541 43546_at expression change: −10.1
  FLJ20048 (49196_at) expression change: −4.3
  FLJ20500 43853_at expression change: −2.1
  FLJ23309 45563_f_at expression change: −2
  FLJ23516 47534_at expression change: −4.1
  GABRP 40339_at expression change: −2.1
  GAS41 (64121_at) expression change: −2
  GJA1 32531_at expression change: −8.8
  GK (61873_at) expression change: −2.7
  GPD2 42720_at expression change: −2
  GSTA3 58023 at expression change: −2.7
  HEY1 44783_s_at expression change: −4.5
  HIN-1 (46200_at) expression change: −32.7
  HSPC195 44705_at expression change: −2.4
  ID1 36619_r_at expression change: −8
  IL20RA 42969_at expression change: −2.1
  IVL 36355_at expression change: −3.7
  KCNMA1 (47575_g_at) expression change: −5.2
  KCNMA1 (53796_at) expression change: −2.8
  KIAA0878 (48793_at) expression change: −2.8
  KIAA1376 (62972_at) expression change: −2.2
  KIAA1376 (64047_at) expression change: −4
  KIAA1547 58531_g_at expression change: −2.6
  KLF7 (42769_at) expression change: −2.3
  KRT6B (62998_at) expression change: −5.6
  KRT15 37582_at expression change: −2.6
  LCE 45605_at expression change: −2.6
  LMO4 1452_at expression change: −2
  LOC51297 (55440_at) expression change: −60.6
  LOC51297 (55442_g_at) expression change: −181.3
  LOC51316 (63342_at) expression change: −2.4
  LOC55893 (64071_at) expression change: −3.5
  LOC129642 (42065_at) expression change: −5.4
  LOC129642 (58288_at) expression change: −7.2
  LOC131177 (43849_s_at) expression change: −2.6
  LOC131177 (45394_s_at) expression change: −2.3
  MGC12536 46924_at expression change: −4.9
  MGC13102 (54791_at) expression change: −3.9
  MGC14128 55924_at expression change: −5.1
  MGC14128 (51669_r_at) expression change: −4.4
  MGC14597 (46030_at) expression change: −3.7
  MGC16207 43412_s_at expression change: −2.6
  MGC16207 (65876_at) expression change: −4
  N52554 47432_at expression change: −2.7
  N71183 52473_at expression change: −2.3
  PSCA (63958_at) expression change: −6.5
  RAC2 32737_at expression change: −4.9
  RIN1 1778_g_at expression change: −2.1
  SCNN1B 39682_at expression change: −7.6
  SEMA4B (46709_at) expression change: −3.6
  SERPINA3 (75248_at) expression change: −24.4
  SLC11A3 (45826_at) expression change: −3.3
  SLC34A2 (48048_at) expression change: −2
  SPON2 52576_s_at expression change: −3
  SPRR1B 37160_at expression change: −2.1
  STEAP 40297_at expression change: −3.1
  T52027 (63150_at) expression change: −2.9
  TCF8 33439_at expression change: −2.1
  TGFBI (68339_at) expression change: −4.2
  TNFAIP2 (74633_at) expression change: −4.6
  TNNT1 36113_s_at expression change: −5.5
  TPM1 36790_at expression change: −3.3
  TPM1 36791_g_at expression change: −3.2
  TPM1 36792_at expression change: −3.9
  UCP2 37591_at expression change: −12.7
  UGB 39220_at expression change: −28.1
  VEGFC 1934_s_at expression change: −2.4
  VIM 34091_s_at expression change: −9.4
  W55956 46700_at expression change: −2.3
  W72331 49486 at expression change: −3.4
Lot 1, Day 7, AI method
  AA167714 (54897_at) expression fold change: 3.9 fold
  AA420479 (52539_at) expression fold change: 4.1 fold
  AA582926 (52307_at) expression fold change: 3.8 fold
  AA604375 (44127_at) expression fold change: 2.5 fold
  ACP5 (677_s_at) expression, fold change upon IL-13 stimulation: 2.5 fold
  ADAM8 (40712_at) expression, fold change upon IL-13 stimulation: 5.1 fold
  ADAM28 (35479_at) expression, fold change upon IL-13 stimulation: 5 fold
  AI565105 (54886_at) expression fold change: 2.4 fold
  AI659927 (54033_at) expression fold change: 4.2 fold
